Our source for the IC50 values is BindingDB's records for doi:10.1021/jm070849r (Pfizer, 2008).

One may read the pIC50 as −log10 of the IC50, conventionally taken in molar units.

pIC50: −log10 of the molar value.

The first test has as its target T1, 3-hydroxy-3-methylglutaryl-coenzyme A reductase (Rattus norvegicus, UniProt P51639).
T1 sequence (P51639 whole entry): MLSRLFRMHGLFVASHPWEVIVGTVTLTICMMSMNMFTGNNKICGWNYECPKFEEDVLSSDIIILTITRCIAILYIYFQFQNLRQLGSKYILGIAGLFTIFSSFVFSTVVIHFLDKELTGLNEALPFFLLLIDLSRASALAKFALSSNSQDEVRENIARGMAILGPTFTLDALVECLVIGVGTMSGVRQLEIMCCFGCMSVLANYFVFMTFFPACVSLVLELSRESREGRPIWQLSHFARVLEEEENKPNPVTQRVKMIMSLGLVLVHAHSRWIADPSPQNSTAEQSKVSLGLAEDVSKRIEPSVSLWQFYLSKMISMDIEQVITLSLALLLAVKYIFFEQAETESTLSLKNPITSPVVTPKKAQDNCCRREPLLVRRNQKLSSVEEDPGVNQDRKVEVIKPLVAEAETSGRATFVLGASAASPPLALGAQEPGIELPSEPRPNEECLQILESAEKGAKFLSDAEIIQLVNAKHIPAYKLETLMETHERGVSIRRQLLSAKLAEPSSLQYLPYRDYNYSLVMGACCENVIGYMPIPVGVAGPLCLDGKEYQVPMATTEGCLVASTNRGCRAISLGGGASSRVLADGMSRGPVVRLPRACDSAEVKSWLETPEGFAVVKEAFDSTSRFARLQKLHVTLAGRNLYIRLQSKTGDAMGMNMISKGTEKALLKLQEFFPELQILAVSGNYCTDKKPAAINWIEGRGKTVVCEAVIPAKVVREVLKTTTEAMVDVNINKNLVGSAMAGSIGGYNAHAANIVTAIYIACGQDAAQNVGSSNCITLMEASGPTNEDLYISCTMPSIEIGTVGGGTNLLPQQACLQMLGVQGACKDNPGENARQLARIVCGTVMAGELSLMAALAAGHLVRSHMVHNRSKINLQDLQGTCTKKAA
Kind of test: HMG-CoA Reductase Enzyme Assay and Inhibition of Cellular Cholesterol Synthesis Assay. The settings on record: pH 7.2; 37 °C. How it is done:
Enzyme Assay for HMG-CoA reductase was based on the conversion of isotopically labeled HMG-CoA to mevalonic acid using rat liver microsomes as enzyme source. The product, [14C]-mevalonic acid was lactonized and separated from excess substrate via an anion ion exchange resin column, and radioactivity was counted on a scintillation counter. The IC50 values were calculated with GraphPad software (Prism). The cellular assay EC50/IC50 values were obtained from inhibition of cholesterol synthesis in rat hepatocyte.
`CC(C)c1nc(N(C)S(C)(=O)=O)nc(-c2ccc(F)cc2)c1/C=C/[C@@H](O)C[C@@H](O)CC(=O)O`: the pIC50 is 9.52.

`CC(C)c1c(C(=O)NCc2ccccc2)nn(-c2ccc(F)cc2)c1CC[C@@H](O)C[C@@H](O)CC(=O)O` [(3R,5R)-7-[3-(benzylcarbamoyl)-1-(4-fluorophenyl)-4-(propan-2-yl)-1H-pyrazol-5-yl]-3,5-dihydroxyheptanoic acid]: the pIC50 was 9.52. Still for that read-out and setting: the same measure for `CC[C@H](C)C(=O)O[C@H]1C[C@H](O)C=C2C=C[C@H](C)[C@H](CC[C@@H](O)C[C@@H](O)CC(=O)O)[C@H]21` [(3R,5R)-7-[(1S,2S,6S,8S,8aR)-6-hydroxy-2-methyl-8-{[(2S)-2-methylbutanoyl]oxy}-1,2,6,7,8,8a-hexahydronaphthalen-1-yl]-3,5-dihydroxyheptanoic acid]: 7.77; for `COCc1c(C(C)C)nc(C(C)C)c(/C=C/[C@@H](O)C[C@@H](O)CC(=O)O)c1-c1ccc(F)cc1` [(3R,5S,6E)-7-[4-(4-fluorophenyl)-5-(methoxymethyl)-2,6-bis(propan-2-yl)pyridin-3-yl]-3,5-dihydroxyhept-6-enoic acid]: 8.77. The same measure, in the same setting: the same measure for `Cc1ccc(CNC(=O)c2nn(-c3ccc(F)cc3)c(CC[C@@H](O)C[C@@H](O)CC(=O)O)c2C(C)C)cc1` [pyrazole-based inhibitor, 35]: 9.05; for `CC(C)c1c(C(=O)N(C)Cc2cccc(F)c2F)nn(-c2ccc(F)cc2)c1CC[C@@H](O)C[C@@H](O)CC(=O)O` [sodium (3R,5R)-7-(3-{[(2,3-difluorophenyl)methyl](methyl)carbamoyl}-1-(4-fluorophenyl)-4-(propan-2-yl)-1H-pyrazol-5-yl)-3,5-dihydroxyheptanoate]: 9.22. Same read-out and setting: the value for `CC(C)c1c(C(=O)N(C)Cc2ccc(F)cc2F)nn(-c2ccc(F)cc2)c1CC[C@@H](O)C[C@@H](O)CC(=O)O` [sodium (3R,5R)-7-(3-{[(2,4-difluorophenyl)methyl](methyl)carbamoyl}-1-(4-fluorophenyl)-4-(propan-2-yl)-1H-pyrazol-5-yl)-3,5-dihydroxyheptanoate] was 8.68; that for `CC(C)c1c(C(=O)NCc2cccc(C#N)c2)nn(-c2ccc(F)cc2)c1CC[C@@H](O)C[C@@H](O)CC(=O)O` [sodium (3R,5R)-7-(3-{[(3-cyanophenyl)methyl]carbamoyl}-1-(4-fluorophenyl)-4-(propan-2-yl)-1H-pyrazol-5-yl)-3,5-dihydroxyheptanoate] was 8.85; that for `COCc1cccc(CNC(=O)c2nn(-c3ccc(F)cc3)c(CC[C@@H](O)C[C@@H](O)CC(=O)O)c2C(C)C)c1` [sodium (3R,5R)-7-[1-(4-fluorophenyl)-3-({[3-(methoxymethyl)phenyl]methyl}carbamoyl)-4-(propan-2-yl)-1H-pyrazol-5-yl]-3,5-dihydroxyheptanoate] was 9.15. For `CC(C)c1c(C(=O)N2CCCCC2c2ccccc2)nn(-c2ccc(F)cc2)c1CC[C@@H](O)C[C@@H](O)CC(=O)O` (stereo partly drawn) [sodium (3R,5R)-7-[1-(4-fluorophenyl)-3-[(2-phenylpiperidin-1-yl)carbonyl]-4-(propan-2-yl)-1H-pyrazol-5-yl]-3,5-dihydroxyheptanoate], the pIC50 was 8.96. The same measure, in the same setting: the same measure for `CC(C)c1c(C(=O)N2CCCC2c2ccccc2)nn(-c2ccc(F)cc2)c1CC[C@@H](O)C[C@@H](O)CC(=O)O` (stereo partly drawn) [sodium (3R,5R)-7-[1-(4-fluorophenyl)-3-[(2-phenylpyrrolidin-1-yl)carbonyl]-4-(propan-2-yl)-1H-pyrazol-5-yl]-3,5-dihydroxyheptanoate]: 8.40; for `CC(C)c1c(C(=O)N2CCCC(c3ccccc3)C2)nn(-c2ccc(F)cc2)c1CC[C@@H](O)C[C@@H](O)CC(=O)O` (stereo partly drawn) [sodium (3R,5R)-7-[1-(4-fluorophenyl)-3-[(3-phenylpiperidin-1-yl)carbonyl]-4-(propan-2-yl)-1H-pyrazol-5-yl]-3,5-dihydroxyheptanoate]: 9.40; for `CC(C)c1c(C(=O)N(C)Cc2ccccc2F)nn(-c2ccc(F)cc2)c1CC[C@@H](O)C[C@@H](O)CC(=O)O` [sodium (3R,5R)-7-[1-(4-fluorophenyl)-3-{[(2-fluorophenyl)methyl](methyl)carbamoyl}-4-(propan-2-yl)-1H-pyrazol-5-yl]-3,5-dihydroxyheptanoate]: 9.30. In the case of `CC(C)c1c(C(=O)N(C)Cc2cccc(F)c2)nn(-c2ccc(F)cc2)c1CC[C@@H](O)C[C@@H](O)CC(=O)O` [sodium (3R,5R)-7-[1-(4-fluorophenyl)-3-{[(3-fluorophenyl)methyl](methyl)carbamoyl}-4-(propan-2-yl)-1H-pyrazol-5-yl]-3,5-dihydroxyheptanoate], the pIC50 was 9.70. On the same count and under the same terms, the value for `CC(C)c1c(C(=O)N2CCC[C@H](c3ccccc3)C2)nn(-c2ccc(F)cc2)c1CC[C@@H](O)C[C@@H](O)CC(=O)O` [sodium (3R,5R)-7-[1-(4-fluorophenyl)-3-{[(3R)-3-phenylpiperidin-1-yl]carbonyl}-4-(propan-2-yl)-1H-pyrazol-5-yl]-3,5-dihydroxyheptanoate] was 9.52; that for `CC(C)c1c(C(=O)N(C)Cc2ccc(F)cc2)nn(-c2ccc(F)cc2)c1CC[C@@H](O)C[C@@H](O)CC(=O)O` [sodium (3R,5R)-7-[1-(4-fluorophenyl)-3-{[(4-fluorophenyl)methyl](methyl)carbamoyl}-4-(propan-2-yl)-1H-pyrazol-5-yl]-3,5-dihydroxyheptanoate] was 9.30; that for `CC(C)c1c(C(=O)NCc2ccc(F)cc2)nn(-c2ccc(F)cc2)c1CC[C@@H](O)C[C@@H](O)CC(=O)O` [sodium (3R,5R)-7-[1-(4-fluorophenyl)-3-{[(4-fluorophenyl)methyl]carbamoyl}-4-(propan-2-yl)-1H-pyrazol-5-yl]-3,5-dihydroxyheptanoate] was 9.15. Same read-out and setting: the same measure for `COc1ccc(CN(C)C(=O)c2nn(-c3ccc(F)cc3)c(CC[C@@H](O)C[C@@H](O)CC(=O)O)c2C(C)C)cc1` [sodium (3R,5R)-7-[1-(4-fluorophenyl)-3-{[(4-methoxyphenyl)methyl](methyl)carbamoyl}-4-(propan-2-yl)-1H-pyrazol-5-yl]-3,5-dihydroxyheptanoate]: 9.52; for `COc1ccc(CNC(=O)c2nn(-c3ccc(F)cc3)c(CC[C@@H](O)C[C@@H](O)CC(=O)O)c2C(C)C)cc1` [sodium (3R,5R)-7-[1-(4-fluorophenyl)-3-{[(4-methoxyphenyl)methyl]carbamoyl}-4-(propan-2-yl)-1H-pyrazol-5-yl]-3,5-dihydroxyheptanoate]: 9.40. On the same count and under the same terms, the same measure for `Cc1ccccc1CN(C)C(=O)c1nn(-c2ccc(F)cc2)c(CC[C@@H](O)C[C@@H](O)CC(=O)O)c1C(C)C` [sodium (3R,5R)-7-[1-(4-fluorophenyl)-3-{methyl[(2-methylphenyl)methyl]carbamoyl}-4-(propan-2-yl)-1H-pyrazol-5-yl]-3,5-dihydroxyheptanoate]: 8.68; for `Cc1cccc(CN(C)C(=O)c2nn(-c3ccc(F)cc3)c(CC[C@@H](O)C[C@@H](O)CC(=O)O)c2C(C)C)c1` [sodium (3R,5R)-7-[1-(4-fluorophenyl)-3-{methyl[(3-methylphenyl)methyl]carbamoyl}-4-(propan-2-yl)-1H-pyrazol-5-yl]-3,5-dihydroxyheptanoate]: 9.22.

Still in this test, the particulars now being: pH 7.2; 37 °C; read-out: IC50.
In the case of `Cc1ccccc1CN(C)C(=O)c1nn(-c2ccc(F)cc2)c(CC[C@@H](O)C[C@@H](O)CC(=O)O)c1C(C)C` [sodium (3R,5R)-7-[1-(4-fluorophenyl)-3-{methyl[(2-methylphenyl)methyl]carbamoyl}-4-(propan-2-yl)-1H-pyrazol-5-yl]-3,5-dihydroxyheptanoate], the pIC50 is 7.80.
